Measurements as given in PubChem BioAssay AID1324 (NMMLSC, 2008).
pEC50: −log10 of the molar value. Active and inactive are the calls of the source. No rule for the calls is given here.

Biological target: glutathione S-transferase (GST-GSH binding)
Assay: GST–glutathione interaction disruption – biochemical, multiplex beads, flow cytometry, HPSMTB buffer, profiling panel (AID 1324);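 also: glutathione beads loaded with GST-green fluorescent protein and no fluorescent Bim peptide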
Details: multiplex bead flow cytometry, MCF; for percent span inhibition: hits give high values, concentration not given here

SMILES	percent span inhibition	pEC50	EC50
O=C(NCc1ccccc1)c1ccc2nc(-c3ccco3)c(-c3ccco3)nc2c1	inactive	–	–
Cn1c(=O)c(C(=O)COC(=O)c2cc(-c3ccco3)nc3ccccc23)c(N)n(CC2CC2)c1=O	inactive	–	–
CCOc1cc(/C=N/NC(N)=O)ccc1OCC(=O)Nc1ccc(C)c(C)c1	inactive	–	–
Cc1cc(-c2nnc3n2N=C(c2ccc(-c4ccccc4)cc2)CS3)n[nH]1	inactive	–	–
Cc1ccc(C(=O)CCC(=O)Nc2ccc(Cl)c(S(=O)(=O)Nc3cccc(Cl)c3)c2)cc1	inactive	–	–
CCCCC(C(=O)OCC)C(N)Cc1ccc(F)cc1 (centres undefined)	inactive	–	–
Cc1cc(NC(=O)CSc2nnc(-c3cccnc3)n2Cc2ccccc2)no1	inactive	–	–
O=c1[nH]c(SCc2nc3ccccc3c(=O)n2-c2ccccc2C(F)(F)F)nc2ccccc12	inactive	–	–
O=C(O)C1=C[C@H](C2CC2)C[C@H](OCCCCO)O1	inactive	–	–
CCOC(=O)c1nc(Nc2ccc(N3CCC(C)CC3)cc2)c2ccccc2n1	inactive	–	–
COc1ccc(CC(=O)Nc2ccccc2Oc2ccccc2)cc1	inactive	–	–
Cc1ccc(NC(=O)c2cc(S(=O)(=O)NCCC3=CCCCC3)ccc2F)cc1F	inactive	–	–
C/C(=N\NC(=O)COc1ccc(C(C)(C)C)cc1)c1ccc2c(c1)OCCO2	inactive	–	–
Cc1occc1C(=O)NNC(=S)NCc1ccccc1	inactive	–	–
O=C(Nc1ccc2nc(-c3ccco3)c(-c3ccco3)nc2c1)N1CCN(c2ccccn2)CC1	inactive	–	–
S=c1[nH]cc(-c2ccccc2)n1-c1ccccc1Cl	inactive	–	–
S=C(Nc1ccccc1)N1CCn2cccc2C1c1cccnc1 (centres undefined)	inactive	–	–
CCOC(=O)c1[nH]cnc1C(=O)NC(C)C	inactive	–	–
Cc1ccc(C(=O)NNC(=O)c2ccc3ncccc3c2)cc1	inactive	–	–
Cc1ccc(N=C2NC(=O)/C(=C/C=C/c3ccco3)S2)cc1	inactive	–	–
CC(=O)OCCCNc1cc(Sc2nc3ccccc3s2)c2nonc2c1[N+](=O)[O-]	inactive	–	–
CCOC(=O)/C(=C\c1ccc(Cl)cc1)c1nc2sc(C)c(C)c2c(=O)[nH]1	inactive	–	–
COc1ccc(/C=C2\SC(=O)NC2=S)cc1OC	inactive	–	–
OC(CNC1CCCCC1)COCCOc1ccc(Br)cc1 (centres undefined)	inactive	–	–
CCCCOC(=O)c1nc(Cl)c(Cl)c(N)c1Cl	inactive	–	–

SMILES	percent span inhibition	pEC50	EC50
C/C(=N\NC(=O)COc1ccc(C#N)cc1)c1ccccc1OC(F)F	inactive	–	–
COc1ccccc1Oc1ccc2c(c1)C(=O)N(c1ccccc1)C2=O	inactive	–	–
COc1ccc(N2CCN(C(=O)c3cc(=O)[nH]c4ccccc34)CC2)cc1	inactive	–	–
CCN(CC)c1ccc(NC(=O)c2ccc(=O)[nH]c2)cc1S(=O)(=O)Nc1ccccc1OC	inactive	–	–
Cc1ccc(Nc2nc(C)cs2)cc1	inactive	–	–
Cc1c(N=C2C=CC(=O)c3ccccc32)c(=O)n(-c2ccccc2)n1C	inactive	–	–
CCOC(=O)CCCNC(=O)c1cncc(O)c1	inactive	–	–
CCN(CC)CCN(C(=O)c1ccc(N2C(=O)CCC2=O)cc1)c1nc2cc3c(cc2s1)OCCO3	inactive	–	–
NC(=O)c1c(N)sc2c1CCCCC2	inactive	–	–
Nc1c(C(=O)NCC2CCCO2)sc2nc3c(c(-c4ccco4)c12)CC/C3=C\c1ccco1 (centres undefined)	inactive	–	–
Clc1nc2ccccc2cc1/C=N/Nc1nc2ccccc2[nH]1	inactive	–	–
COc1ccc2nc(C)cc(SCC(=O)N/N=C/c3ccc(O)cc3O)c2c1	inactive	–	–
O=C(COc1ccc(Br)cc1CNC1CCCCC1)NCCc1ccccc1	inactive	–	–
CC(C)(C)C(=O)NC(NC(=S)Nc1ccc(S(N)(=O)=O)cc1)C(Cl)(Cl)Cl (centres undefined)	inactive	–	–
Fc1ccccc1-n1cc(-c2ccccc2)[nH]c1=S	inactive	–	–
CCOc1cc(CNc2ccc(N(C)C)cc2)cc(Br)c1OCC(=O)NC(C)(C)C	inactive	–	–
CCOC(=O)c1c2c3c(c(Cl)ccc3[nH]c1=O)C(=O)c1ccccc1-2	–	5.27	–
CN(C)[C@@H]1C(=O)C(C(=O)NCN2CCCC2)=C(O)[C@@]2(O)C(=O)C3=C(O)c4c(O)cccc4[C@@](C)(O)C3CC12 (some centres undefined)	–	–	inactive
Cc1ccc(C)n1-c1cccc(C(=O)O)c1	inactive	–	–
O=C(O)c1cccc(NC2=C(Cl)C(=O)c3ccccc3C2=O)c1	inactive	–	–
O=C(N/N=C/c1ccncc1)c1cccc(NC(=O)c2ccccc2Cl)c1	inactive	–	–
CCOC(=O)c1sc(NC(=O)c2ccncc2)c(C#N)c1C	inactive	–	–
COc1ccc(NC(=O)/C(Cl)=C(/Cl)S(=O)Cc2ccccc2)cn1 (centres undefined)	inactive	–	–
Cc1ccc(NC(=O)C/C(N)=N/OC(=O)c2ccccc2)cc1	inactive	–	–
COc1ccc(-n2c(NC(=O)c3ccco3)c(C#N)c3nc4ccccc4nc32)cc1	inactive	–	–

SMILES	percent span inhibition	pEC50	EC50
CCOc1ncccc1C(=O)OC(C)C(=O)Nc1ccc(CC)cc1 (centres undefined)	inactive	–	–
Cc1ccnc(NS(=O)(=O)c2ccc(NS(=O)(=O)c3cccs3)cc2)n1	inactive	–	–
COC(=O)c1ccc(/C=N/NC(=O)CC(=O)NCc2cccnc2)cc1	inactive	–	–
O=C(Cc1ccc(-c2ccccc2)cc1)NC1CCCC1	inactive	–	–
O=C(COc1ccccc1)N1CCN(c2ncnc3c2cnn3-c2ccccc2)CC1	inactive	–	–
COc1ccc2nc(NC(=O)c3ccc(-c4cccc([N+](=O)[O-])c4)o3)sc2c1	inactive	–	–
Cc1nc2scc(-c3ccccc3)c2c(=O)n1N=C1C=CC(=O)C=C1	inactive	–	–
CCN(CC)c1ccc(NC(=O)COc2ccccc2C)cc1S(=O)(=O)Nc1ccccc1OC	inactive	–	–
CCN(CC)C(=O)COC(=O)c1cc(-c2ccco2)nc2ccccc12	inactive	–	–
Cc1ccc(/C=C2/NC(=O)N(Cc3ccc(Br)cc3)C2=O)o1	inactive	–	–
Cn1cc(CN2C[C@]3(C)C[C@H]2CC(C)(C)C3)c(-c2ccc3c(c2)OCCO3)n1	inactive	–	–
COP(=O)(CC(=O)O)c1ccccc1 (centres undefined)	inactive	–	–
COCCCn1c(N)c(C(=O)Nc2sc3c(c2C(=O)OC)CCCC3)c2nc3ccccc3nc21	–	5.59	–
Cc1ccccc1OCC(=O)N/N=C/c1ccccn1	inactive	–	–
CC(C)Cc1cc(-c2ccco2)c(C#N)c(N)n1	inactive	–	–
CC(=O)NC(=O)Nc1sc(=S)n(C)c1C	inactive	–	–
S=C(Nc1ccc(N2CCOCC2)cc1)Nc1ccc2nc(-c3ccco3)c(-c3ccco3)nc2c1	inactive	–	–
CN(C)c1ncc(C2=C(Cl)C(=O)C(N3CCCC3)=C(Cl)C2=O)s1	–	5.05	–
C=CCn1c(C)cc(-c2csc(NC)n2)c1C	inactive	–	–
Cc1ccc(Nc2nc(-c3c(C)nc4ncccn34)cs2)cc1	–	–	inactive
COCc1cc(CN2CCCC(CNC(=O)c3ccc(F)cc3)C2)ccc1OC (centres undefined)	inactive	–	–
COc1ccccc1-n1c(SCC(=O)N2CCc3ccccc32)nc2c(c1=O)SCC2	inactive	–	–
C/C(=C\c1ccco1)C1Nc2cccc3cccc(c23)N1	inactive	–	–
COc1ccc(NC(=O)c2cccs2)cc1	inactive	–	–
CCc1nnc(NS(=O)(=O)c2ccc(N=CC3=C(O)CC(C)(C)CC3=O)cc2)s1	inactive	–	–

SMILES	percent span inhibition	pEC50	EC50
Cc1nnc(Sc2cc(NCCO)c([N+](=O)[O-])c3nonc23)s1	inactive	–	–
CC1(C)CC(=O)C(C=NCCN2CCN(CCc3ccccc3)CC2)=C(O)C1	inactive	–	–
CCOC(=O)c1ccc(NC(=O)CSCCC(=O)O)cc1	inactive	–	–
CC(NC(=O)Nc1ccccn1)N1C(=O)C2C3C=CC(C3)C2C1=O (centres undefined)	inactive	–	–
O=C(Oc1ccc(-c2cnc3ccccc3n2)cc1)c1cccc([N+](=O)[O-])c1	inactive	–	–
COc1cc2[nH]c(=S)nc(NCCc3ccc(S(N)(=O)=O)cc3)c2cc1OC	–	5.44	–
CC1Nc2ccccc2C(=O)N1NS(=O)(=O)c1ccccc1 (centres undefined)	inactive	–	–
CCN(CC)c1ccc(NC(=O)COc2ccccc2C#N)cc1S(=O)(=O)Nc1ccccc1OC	inactive	–	–
CNCc1ccccc1Sc1cc(O)ccc1O	inactive	–	–
COc1ccc(C2CN(C)CC2C(=O)c2ccc(F)cc2)cc1Cl (centres undefined)	inactive	–	–
Cc1ccc2c(C)c(C(=O)Nc3nnc(C)s3)oc2c1	inactive	–	–
O=C(CSc1ccc2nnc(-c3ccncc3)n2n1)Nc1nccs1	inactive	–	–
C/C(=N\NC(=O)Cc1cccn1C)c1ccc2ccccc2c1	inactive	–	–
O=C(NCc1ccco1)C1CC2CCC1C2 (centres undefined)	inactive	–	–
CN(C)c1ccc(C=C2C(=O)NC(=O)NC2=O)cc1[N+](=O)[O-]	inactive	–	–
CCOc1cc(/C=C2/N=C(C)C(C(=O)OC)=C2O)ccc1O	inactive	–	–
Cc1cc[n+]2cc(-c3cccc([N+](=O)[O-])c3)c(-c3cccc([N+](=O)[O-])c3)cc2c1	inactive	–	–
CNC(CC(=O)c1ccc([N+](=O)[O-])cc1)C(Cl)(Cl)Cl (centres undefined)	inactive	–	–
CC(CCc1ccccc1)NC(=O)C1CCN(S(=O)(=O)N2CCCCC2)CC1 (centres undefined)	inactive	–	–
COc1cccc2c(SCC(=O)N/N=C/c3ccc(O)cc3O)cc(C)nc12	inactive	–	–
CN1CCc2cccc3c2[C@@H]1Cc1ccc(O)c(O)c1-3	–	–	inactive
O=C(CSc1nnc(-c2cccs2)n1Cc1ccco1)c1ccc2c(c1)OCO2	inactive	–	–
CCOC(=O)C1=C(Cc2ccc(OC)cc2)C(=O)c2ccccc2C1=O	inactive	–	–
CCN(CC)c1ccc(NC(=O)c2ccccc2F)cc1S(=O)(=O)Nc1ccccc1OC	inactive	–	–
